pIC50: −log10 of the molar value. Like-named read-outs stand apart in the source and are kept apart here.
Tests used:
[1] = system: HIV-1 (H9/IIB strain); experiment: Multiple Round HIV-1 Infection Assay (Viking Assay) in MT4-GFP cells; assay type: cell-based; conditions: inhibition of reproductive ratio R0
How it was run: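 Inhibition of the reproductive ratio R0, derived from the rise in GFP-positive cells between ~48 h and ~72 h post-infection, was fitted by 4-parameter regression to give IC50. Cells infected at MOI ~0.01 were exposed to compound (typically 8.4 μM–0.42 nM final) in 10% or 50% normal human serum.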

[2] = Prodrug Stability Assay in Bio-Relevant Media (FaSSIF with Pancreatin); assay type: in vitro ADME; conditions: 0.5 mg/mL Pancreatin in FaSSIF, 37° C.; HPLC peak area of prodrug at 5 h divided by that at 0 h
Description: Prodrug Stability Assay in Bio-Relevant Media
The following assay was employed to evaluate the stability of the prodrugs in simulated gastrointestinal tract conditions. Preparation of fasted state simulated intestinal fluid (FaSSIF) using Phares SIF Powder was carried out according to protocols from Phare Drug Delivery AG (Baselland, Switzerland). For sample preparation, 10 μL stock solutions (10 mM) of prodrug substance in DMSO was added to 990 μL of 0.5 mg/mL Pancreatin solution (Fisher CAS #8049-47-6) in FaSSIF. Two samples were prepared for each compound. If the sample was a clear solution, it was directly analyzed by HPLC. If the sample was not clear, the sample was diluted with 100% MeCN, maintained at 37° C. and observed 5 h later. If the sample was clear, HPLC analysis was directly performed. If the sample was still not clear, the sample was diluted with 100% ACN and assayed by HPLC. All the samples were vortexed for 3 min and observed before injection. For the diluted samples, the area is multiplied by a dilution factor when the data is analyzed. The analysis was carried out with an Agilent 1100 series HPLC with autosampler. The column was a Poroshell 120 EC-C18, 4.6×50 mm, 2.7 μm. The flow rate was 1.8 mL/min, and the injection volume was 5 or 10 μL. UV detection was in the range 210-400 nm. The mobile phase consisted of solvent A (water plus 10 mM tetrabutylammonium bromide) and solvent B (acetonitrile) with a gradient of: 90% solvent A at 0 min, changing to 95% solvent B over 6 min, maintaining for 1.5 min, then reverting to 90% solvent A over 1.6 min. The HPLC peak area of the prodrug at 5 h was divided by the HPLC peak area of the prodrug at 0 h, to generate the % claimed parent ratio, which is summarized in Table 2 for gastrointestinal (GI) Tract stability.

[3] = Pharmacokinetic Studies in Dogs - In Vivo Dog PK; parameters: species or system beagle dogs; conditions: dog PBMCs at 24 h following a 10 mg/kg P.O. dose of the prodrug
Description: Pharmacokinetic Studies in Dogs—In Vivo Dog PK
Prodrugs were administered to beagle dogs through intravenous (IV) and oral (P.O.) administrations in a non-crossover manner. The IV dose was prepared in 20% hydroxypropyl β-cyclodextrin (HPBCD) or polyethylene glycol 200:ethanol:water (70:10:20 v/v/v). The dose was administered via cephalic or saphenous vein. The P.O. dose was prepared in 10% polysorbate 80 (Tween 80) and was administered via gavage.
Blood samples were serially collected following dose administration for up to 48 hr and plasma was separated by centrifugation. The concentrations of prodrugs in dog plasma were determined by a LC-MS/MS assay following a protein precipitation step and addition of an appropriate internal standard (labetalol, imipramine or diclofenac). Quantification was done by determining peak area-ratios of the prodrugs and tenofovir to the internal standard. Additional blood sample(s) was collected following dose administration for up to 24 hr. […] The concentrations of tenofovir and/or its phosphate conjugate(s) in PBMCs were determined by an LC-MS/MS assay following a protein precipitation step and addition of an appropriate internal standard (labetalol, imipramine or diclofenac). Quantification was done by determining peak area-ratios of tenofovir and/or its phosphate conjugate(s) to the internal standard.
Pharmacokinetic parameters were obtained using non-compartmental methods (Watson®). The area under the plasma concentration-time curve (AUC0-t) was calculated from the first time point (0 min) up to the last time point with measurable drug concentration using the linear trapezoidal or linear/log-linear trapezoidal rule. The IV plasma clearance was calculated by dividing the dose by AUC0-inf. The terminal half-life of elimination was determined by unweighted linear regression analysis of the log-transformed data. […] The volume of distribution at steady state (Vdss) was obtained from the product of plasma clearance and mean residence time (determined by dividing the area under the first moment curve by the area under the curve). […]

[4] = MT4-GFP cells infected with HIV-1, 10% normal human serum, read-out: Viking, IC50 (10% NHS)
[5] = MT4-GFP cells infected with HIV-1, 50% normal human serum, read-out: Viking, IC50 (50% NHS)

Row | Molecule | pIC50 [1, 4] | pIC50 [1, 5] | GI Tract stability (%) [2] [%] | In Vivo Dog PK (μM): TFV-DP concentrations in dog PBMCs [3] [µM]
1 | CCCOC(=O)C(C)(C)N[P@@](=O)(CO[C@H](C)Cn1cnc2c(N)ncnc21)N[C@H](c1ccc(OC(F)(F)F)cc1)C(F)(F)F (single isomer, unassigned) [Example 27A] | 8.85 | 8.17 | 79.5 | 0.8
2 | CCCOC(=O)C(C)(C)NP(=O)(CO[C@H](C)Cn1cnc2c(N)ncnc21)N[C@@H](C)c1ccc(Cl)cc1 (stereo partly drawn) [Example 13A, propyl 2-(((R)-((((R)-1-(6-amino-9H-purin-9-yl)propan-2-yl)oxy)methyl)(((S)-1-(4-chlorophenyl)ethyl)amino)phosphoryl)ami-no)-2-methylpropanoate and propyl 2-(((S)-((((R)-1-(6-amino-9H-purin-9-yl)propan-2-yl)oxy)methyl)(((S)-1-(4-chlorophenyl)ethyl)amino)phosphoryl)ami-no)-2-methylpropanoate] | 8.08 | 7.12 | 98.5 | 15.9
3 | propyl 2-(((R)-((((R)-1-(6-amino-9H-purin- 9-yl)propan-2-yl)oxy)methyl)((4- isopropylbenzyl)amino)phosphoryl)amino)- 2-methylpropanoate and propyl 2-(((S)-((((R)-1-(6-amino-9H-purin- 9-yl)propan-2-yl)oxy)methyl)((4- isopropylbenzyl)amino)phosphoryl)amino)- 2-methylpropanoate [Example 5A] | 8.51 | 7.77 | 96.3 | 7.7
4 | propyl 2-(((R)-((((R)-1-(6-amino-9H-purin- 9-yl)propan-2-yl)oxy)methyl)(((R)-2,2,2- trifluoro-1-(p- tolyl)ethyl)amino)phosphoryl)amino)-2- methylpropanoate and propyl 2-(((S)-((((R)-1-(6-amino-9H-purin- 9-yl)propan-2-yl)oxy)methyl)(((R)-2,2,2- trifluoro-1-(p- tolyl)ethyl)amino)phosphoryl)amino)-2- methylpropanoate [Example 26A] | 8.33 | 7.35 | 75.3 | 

Source: patent US11123355B2, “Antiviral benzyl-amine phosphodiamide compounds” (Merck Sharp & Dohme Corp., priority 2016, dated 2021)
